# Laboratory results published in patent US6703421B1, “Methods of using phenylmethylbenzoquinone and hydroquinone compounds for treatment of myocarditis, dilated cardiomyopathy and heart failure” (Daiichi Suntory Pharma Co., Ltd., priority 1999, dated 2004).
# Test system: NF-κB
# Test: NF-κB luciferase reporter assay in A549/NF-κBLuc cells
# Type: cell-based, human
# Conditions: A549/NF-κBLuc, IL-1β (1 ng/ml) for 4 hours, luciferase activity; read-out: IC50 (μM) IL-1 stimulation
# Procedure: Using lipofectamine (Lifetech Oriental K. K., Tokyo) according to the conventional method, human lung cancer cell line A549 cells (ATCC catalog no. CCL185), which are known to express hiNOS by cytokine stimulation, were co-transfected with pNFκB-Luc, which are plasmid controlled by a NF-κB binding consensus sequence, and pSV2neo (Clontech, U.S.A.), and then A549/NF-κBLuc, the cell that has stably introduced pNFκB-Luc, was selected by adding G418 sulfate (1 mg/ml, Lifetech Oriental K. K.) to the culture medium.
# The luciferase activity was measured using the Luciferase Assay System (Promega, U.S.A.).
row,IC50 [µM],Compound
1,0.051,"2-[5-Methylthieno[2,3-d]pyrimidine-4-yl]aminoindan-5-carboxylic Acid Morpholinamide [Prod. Ex. 221]"

# Same assay, conditions: A549/NF-κBLuc, TNF-α (500 ng/ml) for 4 hours, luciferase activity; read-out: IC50 (μM) TNF stimulation
row,IC50 [µM],Compound
1,0.089,"2-[5-Methylthieno[2,3-d]pyrimidine-4-yl]aminoindan-5-carboxylic Acid Morpholinamide [Prod. Ex. 221]"

# Same assay, conditions: Homo sapiens; A549/NF-κBLuc, IL-1β (1 ng/ml) for 4 hours, luciferase activity; read-out: IC50 (μM) IL-1 stimulation
row,IC50 [µM],Compound
1,13,"COC1=C(OC)C(=O)C(Cc2cccc(CC(=O)N3CCCCC3)c2)=C(C)C1=O [Prod. Ex. 58, N-[3-(5,6-Dimethoxy-3-methyl-1,4-benzoquinon-2-ylmethyl)phenylacetyl]piperidine]"
2,20,COC1=C(OC)C(=O)C(Cc2ccc(CCC(=O)N3CCC(O)(c4ccccc4)CC3)cc2)=C(C)C1=O [Prod. Ex. 151]
3,14,"COC1=C(OC)C(=O)C(Cc2ccc(CCCC(=O)N3CCSCC3)cc2)=C(C)C1=O [Prod. Ex. 28, N-[4-[4-(5,6-Dimethoxy-3-methyl-1,4-benzoquinon-2-ylmethyl)phenyl]butanoyl]thiomorpholine]"
4,18,COC1=C(OC)C(=O)C(Cc2ccc(CCC(=O)NC3CCCCCC3)cc2)=C(C)C1=O [Prod. Ex. 136]
5,3,"COC1=C(OC)C(=O)C(Cc2ccc(CCC(=O)NC(C)C)cc2)=C(C)C1=O [Prod. Ex. 9, N-[3-[4-(5,6-Dimethoxy-3-methyl-1,4-benzoquinon-2-ylmethyl)phenyl]propionyl]isopropylamine]"
6,14,COC1=C(OC)C(=O)C(Cc2ccc(CCC(=O)Nc3ccc(CC#N)cc3)cc2)=C(C)C1=O [Prod. Ex. 111]
7,18,"CC1=C(C)C(=O)C(Cc2ccc(CCC(=O)N3CCOCC3)cc2)=C(C)C1=O [Prod. Ex. 48, N-[3-[4-(3,5,6-Trimethyl-1,4-benzoquinon-2-ylmethyl)phenyl]propionyl]morpholine]"
8,34,"COC1=C(OC)C(=O)C(Cc2ccccc2CCC(=O)NC(C)C)=C(C)C1=O [Prod. Ex. 73, N-[3-[2-(5,6-Dimethoxy-3-methyl-1,4-benzoquinon-2-ylmethyl)phenyl]propionyl]isopropylamine]"
9,43,COC1=C(OC)C(=O)C(Cc2ccc(CCC(=O)N3CCc4ccccc4C3)cc2)=C(C)C1=O [Prod. Ex. 169]
10,29,"COC1=C(OC)C(=O)C(Cc2cccc(CCC(=O)N3CCOCC3)c2)=C(C)C1=O [Prod. Ex. 34, N-[3-[3-(5,6-Dimethoxy-3-methyl-1,4-benzoquinon-2-ylmethyl)phenyl]propionyl]morpholine]"
11,0.71,"Cc1csc2ncnc(NC3Cc4ccccc4C3)c12 [Prod. Ex. 190, 4-(2-Indanylamino)-5-methylthieno[2,3-d]pyrimidine]"
12,0.15,"Cc1csc2ncnc(NC3Cc4ccc(Oc5ccccc5)cc4C3)c12 (centres unmarked) [Prod. Ex. 214, 4-(5-Phenoxyindan-2-yl)amino-5-methylthieno[2,3-d]pyrimidine]"
13,15,"COC1=C(OC)C(=O)C(Cc2ccc(CCCC(=O)N3CCOCC3)cc2)=C(C)C1=O [Prod. Ex. 27, N-[4-[4-(5,6-Dimethoxy-3-methyl-1,4-benzoquinon-2-ylmethyl)phenyl]butanoyl]morpholine]"
14,0.072,"Cc1csc2ncnc(NC3Cc4ccc(C(=O)NCc5ccccc5)cc4C3)c12 (centres unmarked) [Prod. Ex. 220, N-Benzyl-2-(5-methylthieno[2,3-d]pyrimidine-4-yl)amino-5-indan Carboxamide]"
15,36,COC1=C(OC)C(=O)C(Cc2ccc(CCC(=O)NCCC(C)C)cc2)=C(C)C1=O [Prod. Ex. 173]
16,1,COC1=C(OC)C(=O)C(Cc2ccc(CCC(=O)N3CCCCC3C)cc2)=C(C)C1=O (centres unmarked) [Prod. Ex. 83]
17,28,COC1=C(OC)C(=O)C(Cc2ccc(CCC(=O)N3CCC(O)(c4ccc(Cl)cc4)CC3)cc2)=C(C)C1=O [Prod. Ex. 154]
18,1,COC1=C(OC)C(=O)C(Cc2ccc(CCC(=O)Nc3ccc(OC)cc3)cc2)=C(C)C1=O [Prod. Ex. 94]
19,5,"COC1=C(OC)C(=O)C(Cc2ccc(CC(=O)NC(C)C)cc2)=C(C)C1=O [Prod. Ex. 56, N-[4-(5,6-Dimethoxy-3-methyl-1,4-benzoquinon-2-ylmethyl)phenylacetyl]isopropylamine]"
20,17,COC1=C(OC)C(=O)C(Cc2ccc(CCC(=O)Nc3ccccc3O)cc2)=C(C)C1=O [Prod. Ex. 96]
21,12,"COC1=C(OC)C(=O)C(Cc2cccc(CC(=O)N3CCSCC3)c2)=C(C)C1=O [Prod. Ex. 59, N-[3-(5,6-Dimethoxy-3-methyl-1,4-benzoquinon-2-ylmethyl)phenylacetyl]thiomorpholine]"
22,21,"CC1=C(C)C(=O)C(Cc2ccc(CCC(=O)N3CCCCC3)cc2)=C(C)C1=O [Prod. Ex. 47, N-[3-[4-(3,5,6-Trimethyl-1,4-benzoquinon-2-ylmethyl)phenyl]propionyl]piperidine]"

row,IC50 [µM],Compound
1,0.064,"CC(C)c1csc2ncnc(NC3Cc4ccccc4C3)c12 [Prod. Ex. 211, 4-(2-Indanylamino)-5-isopropylthieno[2,3-d]pyrimidine]"
2,5,"COC1=C(OC)C(=O)C(Cc2cccc(CCCC(=O)N3CCSCC3)c2)=C(C)C1=O [Prod. Ex. 64, N-[4-[3-(5,6-Dimethoxy-3-methyl-1,4-benzoquinon-2-ylmethyl)phenyl]butanoyl]thiomorpholine]"
3,13,"COC1=C(OC)C(=O)C(Cc2ccc(CCCC(=O)N3CCCCC3)cc2)=C(C)C1=O [Prod. Ex. 29, N-[4-[4-(5,6-Dimethoxy-3-methyl-1,4-benzoquinon-2-ylmethyl)phenyl]butanoyl]piperidine]"
4,2,"COC1=C(OC)C(=O)C(Cc2cccc(CCCC(=O)N3CCCCC3)c2)=C(C)C1=O [Prod. Ex. 63, N-[4-[3-(5,6-Dimethoxy-3-methyl-1,4-benzoquinon-2-ylmethyl)phenyl]butanoyl]piperidine]"
5,42,"COC1=C(OC)C(=O)C(Cc2ccccc2CCC(=O)N2CCSCC2)=C(C)C1=O [Prod. Ex. 72, N-[3-[2-(5,6-dimethoxy-3-methyl-1,4-benzoquinon-2-ylmethyl)phenyl]propionyl]thiomorpholine]"
6,7,"COC1=C(OC)C(=O)C(Cc2ccc(CC(=O)N3CCSCC3)cc2)=C(C)C1=O [Prod. Ex. 55, N-[4-(5,6-Dimethoxy-3-methyl-1,4-benzoquinon-2-ylmethyl)phenylacetyl]thiomorpholine]"
7,42,"COC1=C(OC)C(=O)C(Cc2ccc(C(=O)NC(C)C)cc2)=C(C)C1=O [Prod. Ex. 23, N-[4-(5,6-Dimethoxy-3-methyl-1,4-benzoquinon-2-ylmethyl)benzoyl]isopropylamine]"
8,8,"COC1=C(OC)C(=O)C(Cc2cccc(CCC(=O)NC(C)C)c2)=C(C)C1=O [Prod. Ex. 35, N-[3-[3-(5,6-Dimethoxy-3-methyl-1,4-benzoquinon-2-ylmethyl)phenyl]propionyl]isopropylamine]"
9,19,COC1=C(OC)C(=O)C(Cc2ccc(CCC(=O)NC3CCCCC3)cc2)=C(C)C1=O [Prod. Ex. 175]
10,14,COC[C@H]1CCCN1C(=O)CCc1ccc(CC2=C(C)C(=O)C(OC)=C(OC)C2=O)cc1 [Prod. Ex. 76]
11,29,"COC1=C(OC)C(=O)C(Cc2ccc(CCC(=O)N3CCOCC3)cc2)=C(C)C1=O [Prod. Ex. 3, N-[3-[4-(5,6-Dimethoxy-3-methyl-1,4-benzoquinon-2-ylmethyl)phenyl]propionyl]morpholine]"
12,22,"COC1=C(OC)C(=O)C(Cc2cccc(C(=O)NC(C)C)c2)=C(C)C1=O [Prod. Ex. 42, N-[3-(5,6-Dimethoxy-3-methyl-1,4-benzoquinon-2-ylmethyl)benzoyl]isopropylamine]"
13,15,COC1=C(OC)C(=O)C(Cc2ccc(CCC(=O)N3CCc4cc(OC)c(OC)cc4C3)cc2)=C(C)C1=O [Prod. Ex. 167]
14,16,CCCCCc1ccc(NC(=O)CCc2ccc(CC3=C(C)C(=O)C(OC)=C(OC)C3=O)cc2)cc1 [Prod. Ex. 113]
15,17,CC1=C(C)C(=O)C(Cc2ccc(CCC(=O)NC(C)C)cc2)=C(C)C1=O [Prod. Ex. 46]
16,24,"COC1=C(OC)C(=O)C(Cc2cccc(CCC(=O)N3CCCCC3)c2)=C(C)C1=O [Prod. Ex. 32, N-[3-[3-(5,6-Dimethoxy-3-methyl-1,4-benzoquinon-2-ylmethyl)phenyl]propionyl]piperidine]"
17,56,"COC1=C(OC)C(=O)C(Cc2ccccc2CCC(=O)N2CCOCC2)=C(C)C1=O [Prod. Ex. 71, N-[3-[2-(5,6-Dimethoxy-3-methyl-1,4-benzoquinon-2-ylmethyl)phenyl]propionyl]morpholine]"
18,5,COC1=C(OC)C(=O)C(Cc2ccc(CCC(=O)N3CCCC(C)C3)cc2)=C(C)C1=O (centres unmarked) [Prod. Ex. 85]
19,13,COC1=C(OC)C(=O)C(Cc2ccc(CCC(=O)N3CCC(C(N)=O)CC3)cc2)=C(C)C1=O [Prod. Ex. 79]
20,28,"CC1=C(C)C(=O)C(Cc2cccc(CCC(=O)NC(C)C)c2)=C(C)C1=O [Prod. Ex. 49, N-[3-[3-(3,5,6-Trimethyl-1,4-benzoquinon-2-ylmethyl)phenyl]propionyl]isopropylamine]"
21,28,"COC1=C(OC)C(=O)C(Cc2cccc(CCC(=O)N3CCSCC3)c2)=C(C)C1=O [Prod. Ex. 33, N-[3-[3-(5,6-Dimethoxy-3-methyl-1,4-benzoquinon-2-ylmethyl)phenyl]propionyl]thiomorpholine]"
22,8,"COC1=C(OC)C(=O)C(Cc2ccc(CC(=O)N3CCOCC3)cc2)=C(C)C1=O [Prod. Ex. 53, N-[4-(5,6-Dimethoxy-3-methyl-1,4-benzoquinon-2-ylmethyl)phenylacetyl]morpholine]"

# Same assay, conditions: Homo sapiens; A549/NF-κBLuc, TNF-α (500 ng/ml) for 4 hours, luciferase activity; read-out: IC50 (μM) TNF stimulation
row,IC50 [µM],Compound
1,4,"COC1=C(OC)C(=O)C(Cc2ccc(CCC(=O)NC(C)C)cc2)=C(C)C1=O [Prod. Ex. 9, N-[3-[4-(5,6-Dimethoxy-3-methyl-1,4-benzoquinon-2-ylmethyl)phenyl]propionyl]isopropylamine]"
2,1.1,"Cc1csc2ncnc(NC3Cc4ccccc4C3)c12 [Prod. Ex. 190, 4-(2-Indanylamino)-5-methylthieno[2,3-d]pyrimidine]"
3,0.12,"Cc1csc2ncnc(NC3Cc4ccc(C(=O)NCc5ccccc5)cc4C3)c12 (centres unmarked) [Prod. Ex. 220, N-Benzyl-2-(5-methylthieno[2,3-d]pyrimidine-4-yl)amino-5-indan Carboxamide]"
4,0.13,"CC(C)c1csc2ncnc(NC3Cc4ccccc4C3)c12 [Prod. Ex. 211, 4-(2-Indanylamino)-5-isopropylthieno[2,3-d]pyrimidine]"
